Experimental data published in patent US4620871A (priority 1980, dated 1986).

Tests used:
[1] = tested on: callus isolated from Datura innoxia Mill. roots; assay: Growth of callus isolated from Datura innoxia Mill. roots (Example 15); format: cell-based; settings: for percentage growth promoting effect: control = 100, 30240 min
soybean leaf segments = assay: Stimulation of the protein level of soybean, glycine-14C incorporation (Example 18); settings: 24 hours; for Radioactivity: 200 ppm, control 11.9
Protocol: The active agent to be tested was dissolved in distilled water to form a 200 ppm solution, and soybean leaf segments, weighing 200 mg, were floated on the surface of the solution for 24 hours. In the control test leaf segments, weighing 200 mg, were floated on the surface of distilled water.
The leaf segments were washed with distilled water, and then treated for 3 hours with 20 ml of a solution containing labelled amino acid (glycine-^14 C; activity: 2 μCi). After this exposition period the leaf segments were washed with an aboundant amount of water, and the protein content of the leaf segments was isolated in a manner known per se. Stock solution was prepared from the isolated protein, and the specific radioactivity of the solution was determined by liquid scintillation.

leaves of Pinto bean = assay: Protein synthesis, glycine-2-14C incorporation in Pinto bean leaves (Example 19); settings: 18 hours, zeatin 20 ppm, kinetin/benzyladenine 30 ppm, others 200 ppm
Protocol: The tests were performed on leaves of Pinto bean. The leaf segments were treated with an endogeneous cytokinin (zeatin), synthetic cytokinins (kinetin, benzyladenine) or with the compositions according to the invention, respectively, by floating the leaf segments on the solution of the test substance for 18 hours. Thereafter the leaf segments were exposed to a labelled amino acid (glycine-2-^14 C) for 3 hours, and the incorporation of the amino acid was determined by radiometry.

leaves of Pinto beans = assay: Stimulation of carbon dioxide fixation, Pinto beans (Example 21); settings: zeatin 20, kinetin/benzyladenine 30, others 200 ppm; for Radioactivity A: A = in the light, control 2.14; for Radioactivity B: B = in the dark, control 0.18; for Radioactivity C: C = photosynthetic, control 2.32
Protocol: The tests were performed on leaves of Pinto beans. The leaf segments were treated with an endogeneous cytokinin (zeatin), synthetic cytokinins (kinetin, benzyladenine) or with the compositions according to the invention, respectively, by floating the leaf segments on the solution of the test substance for 18 hours, thereafter the leaf segments were exposed to labelled carbon dioxide (activity: 100 μCi/5000 ml of ^14 CO2) for 0.5 hours.

green parts of maize = assay: Stimulation of plant photolysis, HTO, maize (Example 22); settings: 2 hours; for Radioactivity: 500 ppm, control 4.64
Protocol: The compositions according to the invention were diluted with distilled water to an active agent content of 500 ppm, and green parts of maize, weighing 200 mg, were treated with the resulting solutions for 2 hours. Thereafter the treated green plant parts were treated for one hour with 10 μCi/50 ml HTO, then the plant parts were frozen with liquid nitorgen, triturated, subjected to chromatographic separation, and the radioactivity of the isolated glycerol aldehyde was determined.
In the control test the green parts of maize were treated with distilled water only.

Maize = assay: Stimulation of nutrient uptake, labelled phosphate, maize (Example 24); settings: for labelled phosphate in nucleic acid fraction: 200 ppm, control 31.2
Protocol: The compositions according to the invention were diluted with distilled water to an active agent concentration of 200 ppm, and leaf segments of wheat, maize and pea, weighing 200 mg each, were treated with the solutions. Thereafter the treated green leaf segments were treated for 0.5 hours with a solution of labelled phosphate ions (radioactivity: 30 μCi/50 ml). After this exposition period the treated leaf segments and the untreated controls were processed in a manner known per se to isolate the nucleic acid fractions, and the isolated nucleic acid fractions were dissolved in 6 n ammonium hydroxide solution. Stock solutions were prepared from the resulting solutions, and the amount of labelled phosphate ions present in the stock solutions were measured by liquid scintillation.

Pinto bean = assay: Stimulation of membrane activity (nitrate uptake), Pinto bean (Example 25); format: in vivo; settings: for Protein nitrogen / Total nitrogen: 2 weeks; for Protein nitrogen / Total nitrogen / Protein nitrogen, stimulation / Protein nitrogen content in % of the total nitrogen content: zeatin 20, kinetin/benzyladenine 30, others 200 ppm; for Protein nitrogen: control 2.4; for Total nitrogen: control 3.8; for Total nitrogen, stimulation: 200 ppm; for Protein nitrogen content in % of the total nitrogen content: control 63
Protocol: The tests were performed on Pinto bean. The plants were treated with solutions of an endogeneous cytokinin (zeatin), synthetic cytokinins and membraneactive regulators according to the invention, respectively, and the leaves of the plants were analyzed 2 weeks after the treatment.

[2] = tested on: Mixed soybean/sunflower cultures; assay: Nitrogen content of mixed soybean/sunflower culture (Example 27); format: in vivo; settings: 3 x 2 kg/ha; for Protein nitrogen content: control 2.27; for Total nitrogen content: control 2.56; for Protein nitrogen content in % of the total nitrogen content: control 65.2
Protocol: Mixed soybean/sunflower cultures, to be harvested when green, were treated with the compositions according to the invention under large-parcel field conditions. The tests were performed in fourfold replications on parcels 1 hectare in area, each. The compositions were diluted with water and sprayed onto the parcels three times, in doses of 2 kg/ha, each. The first treatment was performed when the soil was already completely covered by green plants, the second treatment was performed two weeks later, and then the third after two additional weeks. The green plants were harvested from the treated and control parcels, and the total nitrogen content and protein nitrogen content were determined.

hybrid maize = assay: Grain yield of maize (Example 29); format: in vivo; settings: for Grain yield, increase: in vivo; for Grain yield: seed dressing 0.5 kg/ha + sprays 3, 1, 2 kg/ha, control 132.8
Protocol: The compositions according to the invention were applied as seed dressing agents onto the sowing-seeds of hybrid maize in a dosis of 0.5 kg/ha. The powdery compositions were wetted with water prior to application. The stand was sprayed three times during the cultivation period: first at the four-leaves development stage with a dosis of 3 kg/ha, then prior to tasseling with a dosis of 1 kg/ha, and finally prior to pollen ripening with a dosis of 2 kg/ha. The crop was evaluated as May shelled corn.

[3] = tested on: Mexican 226 K wheat variety; assay: Nitrogen contents of grains of Mexican 226 K wheat (Example 31); format: in vivo; settings: for Protein nitrogen content: control 1.61; for Total nitrogen content: seed 2 kg/ha + soil 2 kg/ha, control 2.12
Protocol: Two wheat varieties, Libelulla and Mexican 226 K, were utilized in the tests performed under large-parcel field conditions. The sowing seeds were coated with the compositions of the invention according to the wet powder seed dressing technique; a dosis of 2 kg/ha was applied.
The soil was also treated with the compositions according to the invention directly before sowing. A dose of 2 kg/ha was applied.
The grain yields of the wheat varieties, harvested from the treated and control parcels, were measured, and the total nitrogen content and protein nitrogen content of the grains were determined.

[4] = tested on: Edible beans (Superelite variety); assay: Crop yield of edible beans (Example 35); format: in vivo; settings: for Crop yield: control 15.00
Source text: Edible beans (Superelite variety) were sprayed once or twice with the compositions according to the invention.
From the data of Table 29 conclusions can be drawn for the correlation between the development stage of the stand at treatment and the effect of the treatment.

[5] = 2 treatments, 06.20.1979 and 07.06.1979

## N=C(N)N.N=C(N)N.Oc1nnc(O)c2ccccc12 [1,4-dihydroxyphthalazine diguanidine salt]
[1]; with kinetin (2 ppm)
  Dry substance: 3.53%
  Dry weight of the callus: 269.07 mg
  Fresh weight of the callus: 7.6110 g
  Growth, dry weight: 24.46
  Growth, fresh weight: 24.37
  Speed of growth: 149.20 mg/day
[1]; with kinetin
  percentage growth promoting effect: 156%
[1]; without kinetin
  Dry substance: 7.14%
  Dry weight of the callus: 66.11 mg
  Fresh weight of the callus: 0.9258 g
  Growth, dry weight: 5.25
  Growth, fresh weight: 2.08
  Speed of growth: 12.77 mg/day
  percentage growth promoting effect: 648%
Soybean leaf segments
  Radioactivity: 15.5 mu Ci/100 mg
Soybean leaf segments; Glycine max
  activation at 200 ppm: 30.2%
Leaves of Pinto bean
  Stimulation: 39.0%
Leaves of Pinto beans
  Radioactivity A: 3.38 dpm/200 mg fresh weight
  Radioactivity B: 0.31 dpm/200 mg fresh weight
  Radioactivity C: 3.69 dpm/200 mg fresh weight
  Stimulation: 59.3%
Green parts of maize
  Radioactivity: 11.42 dpm/mg dry weight
Green parts of maize; Zea mays
  activation at 500 ppm: 146%
Maize
  labelled phosphate in nucleic acid fraction: 47.0 1000 cpm/g
Maize; Zea mays
  activation at 200 ppm: 50.6%
Pinto bean
  Protein nitrogen: 4.1 % of dry weight
  Total nitrogen: 4.8 % of dry weight
  Total nitrogen, stimulation: 26.3%
  Protein nitrogen, stimulation: 70.8%
  Protein nitrogen content in % of the total nitrogen content: 85%
[2]
  Protein nitrogen content, stimulation: 39.6%
  Total nitrogen content, stimulation: 34.7%
  Protein nitrogen content: 3.17 % of dry weight
  Total nitrogen content: 3.45 % of dry weight
  Protein nitrogen content in % of the total nitrogen content: 94.8%
Hybrid maize
  Grain yield, increase: 37.0%
  Grain yield: 181.9 q/ha
[3]
  Protein nitrogen content, stimulation: 28.5%
  Total nitrogen content, stimulation: 5.6%
  Protein nitrogen content: 2.07 % of dry substance
  Total nitrogen content: 2.81 % of dry substance
[4]; 1 treatment, 07.06.1979
  Crop yield, increase: 18.4%
  Crop yield: 17.77 q/ha

## CCC[n+]1c[nH]c2ccccc21.[Br-] [N--(n-Propyl)-benzimidazolium bromide, N-(n-propyl)-benzimidazolium bromide]
[1]; with kinetin (2 ppm)
  Dry substance: 3.17%
  Dry weight of the callus: 209.13 mg
  Fresh weight of the callus: 6.5772 g
  Growth, dry weight: 18.78
  Growth, fresh weight: 20.92
  Speed of growth: 128.10 mg/day
[1]; with kinetin
  percentage growth promoting effect: 134%
[1]; without kinetin
  Dry substance: 7.07%
  Dry weight of the callus: 43.29 mg
  Fresh weight of the callus: 0.6120 g
  Growth, dry weight: 3.09
  Growth, fresh weight: 1.04
  Speed of growth: 6.36 mg/day
  percentage growth promoting effect: 322%
Soybean leaf segments
  Radioactivity: 13.7 mu Ci/100 mg
Leaves of Pinto bean
  Stimulation: 42.7%
Leaves of Pinto bean; control 3.17
  Radioactivity of the TCA-insoluble fraction: 4.52 1000 dpm/200 mg fresh weight
Leaves of Pinto beans
  Radioactivity A: 3.92 dpm/200 mg fresh weight
  Radioactivity B: 0.34 dpm/200 mg fresh weight
  Radioactivity C: 4.26 dpm/200 mg fresh weight
  Stimulation: 84.0%
Green parts of maize
  Radioactivity: 8.76 dpm/mg dry weight
Maize
  labelled phosphate in nucleic acid fraction: 39.3 1000 cpm/g
Pinto bean
  Protein nitrogen: 4.4 % of dry weight
  Total nitrogen: 5.3 % of dry weight
  Total nitrogen, stimulation: 39.4%
  Protein nitrogen, stimulation: 83.3%
  Protein nitrogen content in % of the total nitrogen content: 83%
[2]
  Protein nitrogen content, stimulation: 21.1%
  Total nitrogen content, stimulation: 9.7%
  Protein nitrogen content: 2.75 % of dry weight
  Total nitrogen content: 2.80 % of dry weight
  Protein nitrogen content in % of the total nitrogen content: 98.9%
Hybrid maize
  Grain yield, increase: 12.4%
  Grain yield: 149.3 q/ha
[3]
  Protein nitrogen content, stimulation: 8.0%
  Total nitrogen content, stimulation: 1.0%
  Protein nitrogen content: 1.74 % of dry substance
  Total nitrogen content: 2.15 % of dry substance
[4]; 1 treatment, 06.20.1979
  Crop yield, increase: 18.4%
  Crop yield: 17.77 q/ha
[4]; 1 treatment, 07.06.1979
  Crop yield, increase: 13.5%
  Crop yield: 17.03 q/ha
[4]; [5]
  Crop yield, increase: 30.1%
  Crop yield: 19.52 q/ha
